Laboratory results from US20130296316A1, “Antiparasitic Agents Based On mTOR Inhibitors” (priority 2010, published 2013).
“Also recorded” adds a separate entry of the source. Read-outs that look alike come from different tables or passages of the source.

Tests used:
[1] = test system: L. donovani axenic amastigotes; test: Potency assessment against Leishmania donovani axenic amastigotes (growth, cell counting); type: cell-based; conditions: axenic amastigotes, average of three replicates; read-out: Effective concentration (EC50) L. donovani axenic amastigotes
Leishmania [2] = test: Leishmania growth inhibition summarised across both species and stages; type: cell-based; conditions: range over L. major and L. donovani, promastigotes and amastigotes; read-out: inhibition of Leishmania across both species and stages
L. major promastigotes [3] = test: Cell size and DNA content analysis in Leishmania (flow cytometry); type: cell-based, Leishmania major
Method: L. major log phase promastigotes were inoculated at a concentration of 10^6 cells/ml into media with compounds as indicated, and incubated overnight with varying drug concentrations to assess cell size and DNA content. For cell size, forward scatter of live promastigotes was measured by a FACS flow cytometer (Becton Dickinson), utilizing dye exclusion with 5 μg/ml propidium iodide (PI) to gate for live cells. DNA content was determined by flow cytometry using fixed and permeabilized L. major stained with PI as previously described, but reducing the incubation time with PI and RNase A from 1 hour to 30 minutes. Histogram analysis was performed using CellQuest 3.1 software (BD Bioscience).

[4] = test system: T. brucei gambiense, ELIANE strain; test: Potency assessment against T. b. gambiense ELIANE bloodstream form; type: cell-based, Trypanosoma brucei gambiense
human cells = conditions: literature, Table 1; read-out: Inhibition of Cell Growth EC50; cited from earlier work
[5] = test system: T. brucei brucei Lister 427; test: Potency assessment against T. brucei brucei Lister 427 bloodstream form (AlamarBlue, 72 h); type: cell-based, Trypanosoma brucei brucei
T. cruzi Y strain = test: Mouse model of T. cruzi infection (luciferase imaging); type: in vivo, Balb/c mice; conditions: 30 mg/kg, 5 days, intraperitoneal
Method: (§1) The targeted dosage of inhibitors was determined based on the pharmacokinetic studies disclosed by Maira, et al.. […] For L. major, 12.5 mg/kg orally was the highest tolerable dose while 30 mg/kg intraperitoneally was used for the T. cruzi infections. A lower dose was initially used in T. brucei, 5 or 10 mg/kg intraperitoneally.
Balb/c mice were inoculated intraperitoneally with 10^5 trypomastigotes from T. cruzi Y strain expressing firefly luciferase (kindly provided by Dr. Barbara Burleigh, Harvard University). On day 7 post-infection, mice were anesthetized with ketamine/xylazine and injected with 3 mg of D-Luciferin Potassium Salt (Gold Biotechnology) at 20 mg/ml in PBS and imaged in the IVIS Lumina II (Caliper Life Sciences). […] Mice were treated for 5 days and imaged again on day 13. Data is expressed as the ratio between luciferase units in day 13 versus day 7 to determine the progression of infection with and without drug treatment.

T. b. rhodesiense EATRO3 = test: Acute mouse infection model of T. b. rhodesiense; type: in vivo, Balb/c mice; conditions: for mean survival day (MSD): once per day for four days, untreated died 6th day
T. b. brucei Lister 927 = test: Potency assessment against T. b. brucei Lister 927; type: cell-based, Trypanosoma brucei brucei; conditions: Table 3
Method: Assays were performed using the strain of T. brucei brucei Lister 427 adapted to the laboratory, and the human-infective strain T. b. rhodesiense (EATRO3 ETat1.2 TREU164 [37]). Both strains were grown and tested as bloodstream forms. To establish the EC50, cultures of Trypanosoma brucei and T. b. rhodesiense were treated with two-fold increasing concentrations of compounds (with similar DMSO increasing concentration as control). Cell populations were measured at 72 hours with an Infinite F200 microplate reader (Tecan Austria GmbH, Austria); the determination of cell viability was carried out by the established colorimetric technique AlamarBlue® with modifications, a 96-well plate format spectrophotometric assay which measures the ability of living cells to reduce resazurin [38,39]. Data obtained with T. b. brucei Lister 427 were confirmed by manual counting in a Neubauer chamber for a direct microscopic examination to rule out multinucleated phenotypes that could mask the colorimetric assays, as well as the subtraction of solvent background to dismiss a potential solvent-derived fluorescence. Pentamidine was used as drug control for potency comparison, and T. b. brucei Lister 927 strain was included in our experiments to evaluate the adaptation to medium for the different strains as a variable condition.

[6] = test system: T. brucei brucei Lister 427 bloodstream cells; test: Morphological and cell cycle alterations in T. brucei (flow cytometry); type: cell-based, Trypanosoma brucei brucei
Method: Flow cytometry was used to assess cell size and DNA content, to reveal a G1 arrest and inhibition of protein synthesis or G2 arrest and multinucleated cells. […]. After permeabilization with […], saponin (0.5 mg/mL final concentration), the culture was RNAse treated for 30 minutes (10 μg/mL final concentration) and stained with 20 μg/mL propidium iodide immediately before its acquisition in a FACscan cytometer. Cells incubated with equivalent concentration of drug solvent (DMSO) were included in each experiment as control population.

T. b. rhodesiense = test: Potency assessment against T. b. rhodesiense EATRO3 bloodstream form (AlamarBlue, 72 h); type: cell-based, Trypanosoma brucei rhodesiense
[7] = test system: free T. cruzi trypomastigotes; test: T. cruzi extracellular survival of free trypomastigotes (24 h, CPRG); type: cell-based, Trypanosoma cruzi
Method: T. cruzi trypomastigotes from the Tulahuen strain stably expressing the β-galactosidase gene were obtained from the supernatant of infected cultures of LLC-MK2 cells harvested between days 5 and 7. To remove amastigotes, trypomastigotes were allowed to swim out of the pellet of samples that had been centrifuged for 7 min at 2500 rpm.
Free trypomastigotes were rinsed once and placed in 96-well plates at 100,000/well with the compounds in a final volume of 200 μl of DMEM without phenol red supplemented with 2% FBS, Pen-Strep-Glut and 100 μM CPRG. Plates were incubated for 24 h at 37° C. and absorbance was read at 590 nm.

[8] = test system: L. donovani promastigotes; test: Potency assessment against Leishmania donovani promastigotes (growth, cell counting); type: cell-based; conditions: promastigotes, average of three replicates; read-out: Effective concentration (EC50) L. donovani promastigotes
L. major promastigotes [9] = test: Potency assessment against Leishmania major promastigotes (growth, cell counting); type: cell-based; conditions: promastigotes, average of three replicates; read-out: Effective concentration (EC50) L. major
T. cruzi trypomastigotes = test: T. cruzi intracellular replication in NIH/3T3 host cells (β-galactosidase, CPRG); type: cell-based, Trypanosoma cruzi
L. major = test: Mouse model of L. major infection (bioluminescent imaging); type: in vivo, Balb/c mice
Method: as §1
Mouse experiments were done in compliance with policies approved by the Animal Review Board at Washington University. Mice were infected with luciferase expressing L. major (LmFV1LucTK-1) and analyzed by bioluminescent imaging as described. Balb/c mice were infected with 10^5 L. major metacyclic stage parasites purified by gradient centrifugation. Luminescence was measured using an IVIS 100 instrument and analyzed with Living Image software version 2.60.

Leishmania [10] = conditions: methods similar to those described here; cited from earlier work

## NVP-BEZ235
[1]
  EC50: 70 ± 40 nM
Leishmania [2]
  EC50: 70 to 140 nM
L. major promastigotes [3]
  effect on cell size and DNA content, L. major promastigotes: G2 growth arrest and increased promastigote size
[4]; Table 3, read-out: EC50 T. b. gambiense ELIANE
  EC50: 0.18 ± 0.2 nM
[4]; read-out: EC50 against BSF T. brucei gambiense ELIANE
  EC50: 0.179 nM
Human cells
  EC50: 50 nM
[5]; Lister 427
  potency against BSF T. brucei brucei in words: nanomolar potency
[5]; Table 3, read-out: EC50 T. b. brucei 427
  EC50: 16.3 ± 4.7 nM
[5]; bloodstream form, cell printed in nM, read-out: Effective concentration (EC50) T. b. brucei
  EC50: < 10 nM
T. cruzi Y strain
  efficacy against T. cruzi infection: no efficacy
T. b. rhodesiense EATRO3; 5 mg/kg intraperitoneal
  mean survival day (MSD): 10.8 (±2.4) days
T. b. rhodesiense EATRO3; 10 mg/kg intraperitoneal
  mean survival day (MSD): 13.4 (±3.3) days
T. b. rhodesiense EATRO3; 10 mg/kg, for four days
  parasites eliminated: 80%
T. b. rhodesiense EATRO3; 5 or 10 mg/kg intraperitoneal, within two days, detection limit
  parasitemia: < 10^4 parasites/mL
T. b. brucei Lister 927
  EC50: 1.7 ± 0.5 nM
[6]
  effect on cellular DNA content / cell cycle, T. b. brucei: appearance of zoids (anucleated cells) [59] and multinucleated cells; also recorded: reduction of G1 and G2 cells
T. b. rhodesiense; Table 3, read-out: EC50 T. b. rhodesiense EATRO3
  EC50: 0.73 ± 0.06 nM
T. b. rhodesiense; bloodstream form, cell printed in nM, read-out: Effective concentration (EC50) T. b. rhodesiense
  EC50: 0.73 ± 0.06 nM
T. b. rhodesiense; read-out: activity against EATRO3 strain of T. b. rhodesiense
  EC50: 0.73 nM
[7]
  activity against free, non-replicating T. cruzi trypomastigotes in words: inactive
[7]; non-replicating, outside host cells, read-out: EC50 against free trypomastigotes
  EC50: > 50000 nM
[8]
  EC50: 140 ± 80 nM
L. major promastigotes [9]
  EC50: 110 ± 50 nM
T. cruzi trypomastigotes; 350 nM, after three days, NIH-3T3 host cells
  amastigote lysis within host cells: amastigotes lysis within host cells was observed
T. cruzi trypomastigotes; read-out: EC50 T. cruzi infection of host cell fibroblasts
  EC50: 120 nM
L. major; 12.5 mg/kg/day oral gavage, L. major infected mice
  body weight of drug-treated mice: significant weight loss; also recorded: severe weight loss
L. major; 12.5 mg/kg/day, 10 days, oral gavage
  efficacy against L. major infection: no efficacy; also recorded: no therapeutic effect
L. major; dosing intraperitoneally at 25 mg/kg/day (higher drug doses)
  lethality at higher doses: lethal
L. major; orally, L. major mouse model
  highest tolerable dose: 12.5 mg/kg

## C[C@@H]1[C@H](O)[C@@H](C)/C=C/C=C/C=C/C=C/C=C/C=C/C=C/[C@H](O[C@@H]2O[C@H](C)[C@@H](O)[C@H](N)[C@@H]2O)C[C@@H]2O[C@](O)(C[C@@H](O)C[C@@H](O)[C@H](O)CC[C@@H](O)C[C@@H](O)CC(=O)O[C@H]1C)C[C@H](O)[C@H]2C(=O)O [amphotericin B]
Leishmania [10]
  potency of anti-leishmanial agent: 30 nM
